Measured values taken from US8765946B2, “Methods of preparing and using quinazoline and quinoline derivatives” (priority 2006, dated 2014).

How the values were obtained:
Assay type in all cases: cell-based
A431 cells [1] = experiment: Cell growth inhibition assay (MTS assay), A431; details: Homo sapiens, A-431; A431 cells; MTS, 48 hours; read-out: Growth inhibition activity EC50
[2] = molecular target: T1, A431 cells EGFR-TK phosphorylation stimulated by EGF (Homo sapiens, UniProt P00533); experiment: Inhibition of cellular EGFR-TK phosphorylation stimulated by EGF in A431 cells; details: for inhibition at 3 µM: A-431, concentration of 3 μM, A431 cells, EGF stimulated, one-time measurement at a single concentration (preliminary selection), NA = No activity, read-out: Inhibition Percent (%); for EC50: A431 cells EGFR-TK phosphorylation stimulated by EGF (Table 4)
T1 construct: against A431 cells EGFR-TK; endogenous in cells; host or cells: A431 cells
Protocol: Inhibition Experiment of Cellular Epidermal Growth Factor Receptor Tyrosine Kinase
1) A431 cells were cultured in a medium which was prepared by adding 10% FCS into another medium comprising 50% DMEM and 50% F12.
2) A431 cells grown in six-well plates were cultured in a serum-free medium for 24 hours. During the 24 hour period the medium was replenished once after 12 hours.
3) A solution containing a compound to be assessed was added the A431 cells and the cells were cultured for 2 hours, supplemented twice by a medium free of the compound, and then EGF (100 ng/well) was added, and cultured for 5 minutes.
4) A431 cell homogenate was prepared by Laemili buffer which comprised 2% sodium dodecyl sulfonate (SDS), 5% 2-mercaptoethanol, 10% glycerol and 5 mM Tris (pH 6.8).
5) The A431 cell homogenate was heated for 5 minutes at 100° C.
6) Proteins in the A431 cell homogenates were separated by PAGE and transferred onto a nitrocellulose membrane, and an infrared reading was obtained.

A431 cells [3] = experiment: A431 cell growth inhibition assay (MTT assay); details: Homo sapiens; for inhibition at 3 µM: A-431, concentration of 3 μM, 72 hours, read-out: Inhibition Percent (%)
Protocol: A431 Cell Growth Inhibition Assay (MTT Assay)
A431, an epidermoid carcinoma cell line; The Cell Bank, Committee on Type Culture Collection Chinese Academy of Science, Shanghai.
Mix prepared medium DMEM and F12 in the proportion of 1:1, then add FBS to a final concentration of 10%.
Dissolved the dried compound sample with 100% DMSO to 2 mM. Then diluted the dissolved compound to 20 μM with cell complete growth medium.
Prior to the assay, cultured the A431 to logarithmic phase, and then removed medium from cell monolayers and wash the cells once with sterilized PBS. Aspriated the PBS and added 2 mL trypsin solution to cover the cell growth surface, removed 1 mL trypsin solution after soaking about 1 minute. Transferred the cell-culture plate to CO2 incubator; incubated at 37° C. for 8 minutes to allow cells to dissociate. After the cells detached, added 4 mL complete growth medium containing FBS with pipette to disperse them off and mixed gently to obtain a homogeneous cell suspension. Aspirated some of the cell suspension to a sterilized polypropylene tube, and determined the cell concentration by counting in a hematocytometer chamber under a microscope. Adjusted the cell concentration with growth medium to obtain 2.5×10^4 cells per milliliter.
Added 100 μL adjusted cell suspension to the 96-well cell-culture plate and occasionally mixed the cell suspension during the seeding process. After seeding cells, incubated the plate at 37° C. overnight with 5% CO2 in the CO2 incubator for cell attachment.
After the cell attachment, added 100 μL prepared compound solutions to the corresponding wells (add PBS to the ambient wells of the plate). The final compound concentrations ranged from 10 μM to 1.52 nM. Incubated the plate at 37° C. with 5% CO2 for 72 hours in the CO2 incubator.
After the exposure to the compound, removed the cell culture supernatant. Then added 100 μL 0.5 mg/mL MTT solution which dissolved in the growth medium without FBS. Incubated the plate at 37° C. with 5% CO2 for another 4 hours to allow the MTT reaction to proceed.
After the MTT reaction, discarded the MTT reaction solution. Added 100 μL DMSO to each well, and the plate was agitated on the plate shaker for several minutes to dissolve the formazan. Then, detected the absorbance at 490 nm using microplate reader.

BT474 cells = experiment: BT-474 cell growth inhibition assay (SRB assay); details: Homo sapiens, concentration of 3 μM, 72 h, read-out: Inhibition Percent (%)
Protocol: BT-474 Cell Growth Inhibition Assay (SRB Assay)
BT-474 human breast cancer cell lines were kindly provided by Dr. Changnian Liu, Pharmaron Beijing Co., Ltd.
BT-474 cells were cultured in 37° C., 5% CO2, saturated humidity until logarithmic phase. Discarded culture medium, washed cells once by PBS. Added 1 ml Trypsin/EDTA solution, stood at 37° C. for 5 min, allowed the cells to detach. Added culture medium, adjusted the cells density to 1×10^5 cells/ml.
Day 0, added 100 μl/well cells suspension to 96-well cell culture plates. Incubated overnight to let the cells attach completely.
Day 1, compounds (2 mM in DMSO as stock solution) was diluted to 20 μM in EMEM. Then a fourfold serial dilution was made. These diluted compounds were made as 10× reaction solutions, and the concentration of DMSO was kept at 1%.
Added 80 μl culture medium and 20 μl 10× compound reaction solution to the testing wells, or vehicle control to the control wells. Co-incubated cells with compounds for another 72 h.
Day 3, fixed cellular protein by the addition of 100 μl/well of 10% TCA (diluting from 50% TCA) at 4° C. for 1 h. Rinsed TCA using plate washer, and washed five times using distilled water. Removed the residual wash solution with a piece of absorbent paper. Added 100 μl/well 0.4% SRB solution, allowed a 15-30 min staining period. Removed the SRB, and washed the culture plates five times using 1% acetic acid. Removed the residual wash solution with a piece of absorbent paper. Air-dried the culture plates, dissolved the protein-bound dye with 100 μl/well of 10 mM Tris base solution. Shook the plates until the dye was dissolved completely.

T1 sequence (P00533 25-1210): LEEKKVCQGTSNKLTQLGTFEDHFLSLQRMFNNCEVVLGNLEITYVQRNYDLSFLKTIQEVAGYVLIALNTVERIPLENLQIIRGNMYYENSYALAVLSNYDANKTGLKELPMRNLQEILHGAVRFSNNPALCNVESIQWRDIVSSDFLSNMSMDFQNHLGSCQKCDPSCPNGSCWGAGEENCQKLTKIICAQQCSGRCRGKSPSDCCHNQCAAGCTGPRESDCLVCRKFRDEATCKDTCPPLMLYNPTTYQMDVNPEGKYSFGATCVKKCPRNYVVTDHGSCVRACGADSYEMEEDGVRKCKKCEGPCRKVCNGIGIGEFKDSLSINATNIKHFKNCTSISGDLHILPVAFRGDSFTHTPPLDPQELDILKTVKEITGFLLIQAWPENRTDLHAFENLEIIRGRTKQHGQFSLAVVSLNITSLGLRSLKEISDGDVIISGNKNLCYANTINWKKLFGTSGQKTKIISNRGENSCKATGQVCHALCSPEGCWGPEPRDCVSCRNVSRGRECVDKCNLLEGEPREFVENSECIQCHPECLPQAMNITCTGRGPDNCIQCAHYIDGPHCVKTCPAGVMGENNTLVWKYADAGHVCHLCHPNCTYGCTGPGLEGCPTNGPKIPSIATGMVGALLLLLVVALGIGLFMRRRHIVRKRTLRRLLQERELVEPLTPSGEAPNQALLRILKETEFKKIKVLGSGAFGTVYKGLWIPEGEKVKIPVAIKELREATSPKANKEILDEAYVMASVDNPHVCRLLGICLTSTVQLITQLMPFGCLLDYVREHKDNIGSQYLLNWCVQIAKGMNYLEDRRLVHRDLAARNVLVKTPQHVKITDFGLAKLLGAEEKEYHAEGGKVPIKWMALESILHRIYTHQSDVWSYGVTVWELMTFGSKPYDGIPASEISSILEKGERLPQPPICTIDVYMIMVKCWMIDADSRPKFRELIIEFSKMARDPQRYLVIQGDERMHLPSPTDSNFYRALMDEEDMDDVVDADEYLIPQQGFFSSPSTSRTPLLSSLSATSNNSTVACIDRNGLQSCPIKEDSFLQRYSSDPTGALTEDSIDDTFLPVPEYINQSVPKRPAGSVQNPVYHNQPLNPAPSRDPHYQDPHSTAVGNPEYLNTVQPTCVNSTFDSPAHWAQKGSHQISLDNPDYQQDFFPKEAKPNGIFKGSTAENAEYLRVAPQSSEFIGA

SMILES	EC50 (A431 cells [1]) [nM]	inhibition at 3 µM [2] [%]	EC50 [2] [nM]	inhibition at 3 µM (A431 cells [3]) [%]	inhibition at 3 µM (BT474 cells) [%]	EC50 (A431 cells [3]; A-431, 72 hours (Table 11)) [nM]
C#Cc1cccc(Nc2ncnc3cc(OCCCOC)c(NC(=O)C=C4CCNCC4)cc23)c1 [Example 50, N-(4-(3-ethynylphenylamino)-7-(3-methoxypropoxy)quinazolin-6-yl)-2-(piperidin-4-ylidene)acetamide]	150	95	–	–	–	–
C#Cc1cccc(Nc2ncnc3ccc(NC(=O)C=C4CCN(C)CC4)cc23)c1 [Example 4, N-(4-(3-ethynylphenylamino)quinazolin-6-yl)-2-(1-methylpiperidin-4-ylidene)acetamide]	1800	78	580	–	–	–
O=C(C=C1CCNCC1)Nc1ccc2ncnc(Nc3cccc(Cl)c3)c2c1 [Example 36, N-(4-(3-chlorophenylamino)quinazolin-6-yl)-2-(piperidin-4-ylidene)acetamide]	30000	57	980	–	–	–
C#Cc1cccc(Nc2ncnc3ccc(NC(=O)C=C4CCN(CCOC)CC4)cc23)c1 [Example 7, N-(4-(3-ethynylphenylamino)quinazolin-6-yl)-2-(1-(2-methoxyethyl)piperidin-4-ylidene)acetamide]	5000	65	400	–	–	–
C#Cc1cccc(Nc2ncnc3ccc(NC(=O)C=C4CCNCC4)cc23)c1 [Example 3, N-(4-(3-ethynylphenylamino)quinazolin-6-yl)-2-(piperidin-4-ylidene)acetamide]	2000	85	150	–	–	–
CCOc1cc2ncc(C#N)c(Nc3ccc(F)c(Cl)c3)c2cc1NC(=O)C=C1CCN(CCOC)CC1 [Example 157, N-(4-(3-chloro-4-fluorophenylamino)-3-cyano-7-ethoxyquinolin-6-yl)-2-(1-(2-methoxyethyl)piperidin-4-ylidene)acetamide]	–	–	–	85	59	–
CCOc1cc2ncc(C#N)c(Nc3ccc(OCc4cccc(F)c4)c(Cl)c3)c2cc1NC(=O)C=C1CCN(C)CC1 [Example 162, N-(4-(4-(3-fluorobenzyloxy)-3-chlorophenylamino)-3-cyano-7-ethoxyquinolin-6-yl)-2-(1-methylpiperidin-4-ylidene)acetamide]	–	–	–	41	91	–
CCOc1cc2ncc(C#N)c(Nc3ccc(OCc4ccccn4)c(Cl)c3)c2cc1NC(=O)C=C1CCNCC1 [Example 143, N-(4-(3-chloro-4-(pyridin-2-ylmethoxy)phenylamino)-3-cyano-7-ethoxyquinolin-6-yl)-2-(piperidin-4-ylidene)acetamide]	250	96	–	70	55	1450
N#Cc1cnc2ccc(NC(=O)C=C3CCNCC3)cc2c1Nc1ccc(OCc2cccc(F)c2)c(Cl)c1 [Example 168, N-(4-(4-(3-fluorobenzyloxy)-3-chlorophenylamino)-3-cyanoquinolin-6-yl)-2-(piperidin-4-ylidene)acetamide]	–	–	–	41	89	–
N#Cc1cnc2ccc(NC(=O)C=C3CCNCC3)cc2c1Nc1cccc(Br)c1 [Example 172, N-(4-(3-bromophenylamino)-3-cyanoquinolin-6-yl)-2-(piperidin-4-ylidene)acetamide]	–	–	–	84	61	–
O=C(C=C1CCNCC1)Nc1ccc2ncnc(Nc3ccc4[nH]ccc4c3)c2c1 [Example 41, N-(4-(1H-indol-5-ylamino)quinazolin-6-yl)-2-(piperidin-4-ylidene)acetamide]	1500	71	–	–	–	–
COCCN1CCC(=CC(=O)Nc2cc3c(Nc4ccc(OCc5ccccn5)c(Cl)c4)ncnc3cc2OC)CC1 [Example 118, N-(4-(3-chloro-4-(pyridin-2-ylmethoxy)phenylamino)-7-methoxyquinazolin-6-yl)-2-(1-(2-methoxyethyl)piperidin-4-ylidene)acetamide]	1900	41	–	–	–	–
C[C@H](Nc1ncnc2ccc(NC(=O)C=C3CCNCC3)cc12)c1ccccc1 [Example 34, N-(4-((S)-1-phenylethylamino)quinazolin-6-yl)-2-(piperidin-4-ylidene)acetamide]	13000	68	760	–	–	–
C#Cc1cccc(Nc2c(C#N)cnc3cc(OCCOC)c(NC(=O)C=C4CCNCC4)cc23)c1 [Example 169, N-(3-cyano-4-(3-ethynylphenylamino)-7-(2-methoxyethoxy)quinolin-6-yl)-2-(piperidin-4-ylidene)acetamide]	–	–	–	92	58	–
N#Cc1cnc2ccc(N)cc2c1Nc1cccc(Br)c1 [Example 134, 6-amino-4-(3-bromophenylamino)quinoline-3-carbonitrile]	900	59	–	–	–	–
COCCOc1cc2ncc(C#N)c(Nc3ccc(OCc4ccccn4)c(Cl)c3)c2cc1NC(=O)C=C1CCNCC1 [Example 165, N-(4-(3-chloro-4-(pyridin-2-ylmethoxy)phenylamino)-3-cyano-7-(2-methoxyethoxy)quinolin-6-yl)-2-(piperidin-4-ylidene)acetamide]	–	–	–	53	87	–
CCOc1cc2ncc(C#N)c(Nc3ccc(OCc4cccc(F)c4)c(Cl)c3)c2cc1NC(=O)C=C1CCN(CCOC)CC1 [Example 163, N-(4-(4-(3-fluorobenzyloxy)-3-chlorophenylamino)-3-cyano-7-ethoxyquinolin-6-yl)-2-(1-(2-methoxyethyl)piperidin-4-ylidene)acetamide]	–	–	–	40	87	–
COCCOc1cc2ncc(C#N)c(Nc3ccc(F)c(Cl)c3)c2cc1NC(=O)C=C1CCNCC1 [Example 149, N-(4-(3-chloro-4-fluorophenylamino)-3-cyano-7-(2-methoxyethoxy)quinolin-6-yl)-2-(piperidin-4-ylidene)acetamide]	–	–	–	92	53	–
COc1cc2ncc(C#N)c(Nc3cccc(Br)c3)c2cc1NC(=O)C=C1CCNCC1 [Example 155, N-(4-(3-bromophenylamino)-3-cyano-7-methoxyquinolin-6-yl)-2-(piperidin-4-ylidene)acetamide]	–	–	–	90	58	–
COCCOc1cc2ncc(C#N)c(Nc3cccc(Br)c3)c2cc1NC(=O)C=C1CCNCC1 [Example 171, N-(4-(3-bromophenylamino)-3-cyano-7-(2-methoxyethoxy)quinolin-6-yl)-2-(piperidin-4-ylidene)acetamide]	–	–	–	86	60	–
